Where two headings read alike, the source gives them in different places.
Key:
[1] = molecular target: T1, DNA-dependent protein kinase (DNA-PK) (Homo sapiens, UniProt P78527); test: kinobeads assay, DNA-PK; type: binding; conditions: kinobeads assay
T1 construct: endogenous in cells; host or cells: Jurkat, clone E6-1 (ATCC TIB-152) cell lysate
How it was run: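 IC50 values came from dose-response curves after test compound (1:3 series) competed with an immobilized phenylmorpholin-chromen affinity matrix for kinases in Jurkat lysate at 5 mg/mL protein. Eluted captured DNA-PK and PI3Kδ were measured by specific-antibody dot blot and infrared imaging. Buffer was Tris pH 7.4, NP40, MgCl2, NaCl, vanadate, DTT, NaF.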

PI3 Kgamma (PI3 Kg) = molecular target: T2, PI3 Kgamma (PI3 Kg) (Homo sapiens, UniProt P48736); test: kinobeads assay, PI3Kgamma; type: binding; conditions: kinobeads assay, Table 6; read-out: Inhibition values (IC50) PI3Kg
T2 construct: endogenous in cells; host or cells: cell lysate
How it was run: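 In this bead competition format, compound and immobilized phenylmorpholin-chromen ligand compete for kinases in cell lysate. Eluted captured kinases were measured by multiplexed immunodetection, and IC50 was calculated.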

[2] = Table 6, read-out: Inhibition values (IC50) DNAPK

T1 sequence (P78527 whole entry): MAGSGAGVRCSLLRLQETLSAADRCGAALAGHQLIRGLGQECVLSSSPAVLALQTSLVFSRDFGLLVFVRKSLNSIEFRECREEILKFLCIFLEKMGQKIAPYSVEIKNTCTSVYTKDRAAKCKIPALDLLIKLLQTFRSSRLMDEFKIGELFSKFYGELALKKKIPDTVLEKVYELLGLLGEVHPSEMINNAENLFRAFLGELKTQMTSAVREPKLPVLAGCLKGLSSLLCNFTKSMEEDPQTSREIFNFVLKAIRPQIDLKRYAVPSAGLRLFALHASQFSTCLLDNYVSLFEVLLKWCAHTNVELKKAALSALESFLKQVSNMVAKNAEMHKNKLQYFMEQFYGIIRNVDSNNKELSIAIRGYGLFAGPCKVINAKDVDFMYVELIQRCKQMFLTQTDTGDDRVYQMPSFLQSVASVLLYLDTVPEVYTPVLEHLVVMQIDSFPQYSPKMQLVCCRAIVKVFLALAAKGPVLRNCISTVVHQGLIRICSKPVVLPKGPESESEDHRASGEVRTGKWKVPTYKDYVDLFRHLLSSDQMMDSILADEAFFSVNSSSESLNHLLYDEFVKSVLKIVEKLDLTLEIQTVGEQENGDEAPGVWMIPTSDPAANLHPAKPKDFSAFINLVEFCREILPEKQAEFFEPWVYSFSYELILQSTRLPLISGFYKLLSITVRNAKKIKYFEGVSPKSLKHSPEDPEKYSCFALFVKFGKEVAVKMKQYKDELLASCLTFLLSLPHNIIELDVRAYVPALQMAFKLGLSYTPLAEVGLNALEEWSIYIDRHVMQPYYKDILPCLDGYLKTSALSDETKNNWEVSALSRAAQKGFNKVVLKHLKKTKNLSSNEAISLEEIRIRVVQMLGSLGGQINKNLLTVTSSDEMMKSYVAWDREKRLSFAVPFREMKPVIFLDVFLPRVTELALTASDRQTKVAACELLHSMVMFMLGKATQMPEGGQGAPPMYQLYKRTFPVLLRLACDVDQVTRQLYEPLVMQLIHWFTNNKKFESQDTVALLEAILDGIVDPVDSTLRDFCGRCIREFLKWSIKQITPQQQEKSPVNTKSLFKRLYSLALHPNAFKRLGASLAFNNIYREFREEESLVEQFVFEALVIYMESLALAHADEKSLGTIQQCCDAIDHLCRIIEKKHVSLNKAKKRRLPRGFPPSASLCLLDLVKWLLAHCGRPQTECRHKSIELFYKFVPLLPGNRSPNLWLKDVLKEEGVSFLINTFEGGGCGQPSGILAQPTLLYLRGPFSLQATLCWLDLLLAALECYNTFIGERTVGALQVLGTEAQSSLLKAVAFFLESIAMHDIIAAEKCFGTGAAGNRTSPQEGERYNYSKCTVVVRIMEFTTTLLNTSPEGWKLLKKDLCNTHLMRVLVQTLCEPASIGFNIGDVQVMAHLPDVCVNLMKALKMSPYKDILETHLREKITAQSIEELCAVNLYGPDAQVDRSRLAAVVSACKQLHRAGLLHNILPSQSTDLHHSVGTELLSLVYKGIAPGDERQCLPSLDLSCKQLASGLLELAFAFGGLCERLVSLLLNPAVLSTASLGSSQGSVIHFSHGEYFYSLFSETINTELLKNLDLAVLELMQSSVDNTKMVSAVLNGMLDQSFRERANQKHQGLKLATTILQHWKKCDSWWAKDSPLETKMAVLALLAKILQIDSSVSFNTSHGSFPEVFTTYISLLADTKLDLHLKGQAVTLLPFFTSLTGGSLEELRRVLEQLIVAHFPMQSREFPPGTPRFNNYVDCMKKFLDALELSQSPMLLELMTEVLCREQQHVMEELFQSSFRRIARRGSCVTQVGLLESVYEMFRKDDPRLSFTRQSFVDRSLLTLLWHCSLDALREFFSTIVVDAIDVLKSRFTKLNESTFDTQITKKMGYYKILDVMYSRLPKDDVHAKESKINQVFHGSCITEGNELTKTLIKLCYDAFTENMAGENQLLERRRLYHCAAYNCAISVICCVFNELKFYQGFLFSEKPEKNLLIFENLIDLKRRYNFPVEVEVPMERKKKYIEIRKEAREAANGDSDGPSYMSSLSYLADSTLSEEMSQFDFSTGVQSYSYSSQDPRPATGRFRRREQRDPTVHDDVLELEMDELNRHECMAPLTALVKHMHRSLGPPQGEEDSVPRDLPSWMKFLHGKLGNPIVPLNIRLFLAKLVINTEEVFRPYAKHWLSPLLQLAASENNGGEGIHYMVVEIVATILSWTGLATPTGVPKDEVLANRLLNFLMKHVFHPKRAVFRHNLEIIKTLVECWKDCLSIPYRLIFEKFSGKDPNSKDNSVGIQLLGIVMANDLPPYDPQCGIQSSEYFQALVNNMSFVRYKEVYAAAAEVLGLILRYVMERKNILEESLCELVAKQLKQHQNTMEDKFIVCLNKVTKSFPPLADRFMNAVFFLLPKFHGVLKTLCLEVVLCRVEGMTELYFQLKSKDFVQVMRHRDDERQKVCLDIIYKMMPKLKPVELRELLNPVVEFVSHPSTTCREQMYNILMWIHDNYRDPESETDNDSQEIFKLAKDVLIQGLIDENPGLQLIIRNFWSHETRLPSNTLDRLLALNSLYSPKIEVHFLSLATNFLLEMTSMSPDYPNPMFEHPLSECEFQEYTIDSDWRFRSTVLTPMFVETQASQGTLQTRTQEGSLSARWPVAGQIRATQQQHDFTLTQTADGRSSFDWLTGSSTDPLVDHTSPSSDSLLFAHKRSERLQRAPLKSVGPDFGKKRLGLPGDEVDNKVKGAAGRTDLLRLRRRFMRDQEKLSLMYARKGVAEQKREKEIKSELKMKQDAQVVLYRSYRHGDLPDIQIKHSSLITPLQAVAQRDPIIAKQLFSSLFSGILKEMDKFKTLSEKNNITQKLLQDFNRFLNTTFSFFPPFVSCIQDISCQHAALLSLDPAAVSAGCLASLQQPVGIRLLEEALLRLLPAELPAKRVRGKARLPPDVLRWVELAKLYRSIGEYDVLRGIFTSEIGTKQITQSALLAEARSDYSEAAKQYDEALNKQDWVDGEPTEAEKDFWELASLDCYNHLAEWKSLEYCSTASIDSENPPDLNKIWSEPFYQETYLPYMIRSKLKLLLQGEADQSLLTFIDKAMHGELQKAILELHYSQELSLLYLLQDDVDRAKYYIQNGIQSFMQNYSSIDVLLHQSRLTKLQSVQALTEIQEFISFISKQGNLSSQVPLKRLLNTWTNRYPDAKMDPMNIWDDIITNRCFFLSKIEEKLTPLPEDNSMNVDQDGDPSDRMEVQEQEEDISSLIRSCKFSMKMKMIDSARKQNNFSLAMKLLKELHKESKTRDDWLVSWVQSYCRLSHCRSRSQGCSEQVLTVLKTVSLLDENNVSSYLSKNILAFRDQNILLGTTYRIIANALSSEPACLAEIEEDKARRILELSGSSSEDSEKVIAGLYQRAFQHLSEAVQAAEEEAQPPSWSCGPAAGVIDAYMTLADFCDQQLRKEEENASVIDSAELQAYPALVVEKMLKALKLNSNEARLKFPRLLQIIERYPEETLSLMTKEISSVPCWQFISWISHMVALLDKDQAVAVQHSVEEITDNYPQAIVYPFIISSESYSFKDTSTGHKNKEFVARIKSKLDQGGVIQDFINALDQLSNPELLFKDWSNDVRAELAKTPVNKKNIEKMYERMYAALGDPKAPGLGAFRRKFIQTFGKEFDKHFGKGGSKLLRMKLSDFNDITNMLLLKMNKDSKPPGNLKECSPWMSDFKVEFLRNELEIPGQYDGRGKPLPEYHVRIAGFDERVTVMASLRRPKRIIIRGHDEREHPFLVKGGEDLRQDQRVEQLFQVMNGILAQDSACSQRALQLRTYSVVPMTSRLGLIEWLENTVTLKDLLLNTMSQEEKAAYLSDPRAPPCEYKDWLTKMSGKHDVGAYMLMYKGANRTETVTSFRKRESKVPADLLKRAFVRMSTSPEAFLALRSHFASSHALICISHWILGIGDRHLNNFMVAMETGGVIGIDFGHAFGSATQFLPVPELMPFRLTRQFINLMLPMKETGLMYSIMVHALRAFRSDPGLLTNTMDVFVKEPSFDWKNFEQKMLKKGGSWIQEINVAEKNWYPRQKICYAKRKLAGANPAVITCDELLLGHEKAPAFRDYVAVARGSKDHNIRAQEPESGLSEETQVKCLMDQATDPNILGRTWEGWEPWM

Row | SMILES | IC50 ([1]; Table 4, read-out: Inhibition values (IC50) DNA-PK) [µM] | IC50 [1, 2] [µM] | IC50 (PI3 Kgamma (PI3 Kg)) [µM]
1 | C[C@H]1COCCN1c1nc(-c2ccc(NC(=O)NC3CC3)cc2)nc2c1CCN(C(=O)C1CC1)C2 [Example 60, (S)-1-(4-(7-(cyclopropanecarbonyl)-4-(3-methylmorpholino)-5,6,7,8-tetrahydropyrido[3,4-d]pyrimidin-2-yl)phenyl)-3-cyclopropylurea] | > 10 | > 10 | > 10
2 | CCNC(=O)Nc1ccc(-c2nc3c(c(N4CCOC[C@@H]4C)n2)CCN(C(=O)OC)C3)cc1 [Example 81, (S)-methyl 2-(4-(3-ethylureido)phenyl)-4-(3-methylmorpholino)-5,6-dihydropyrido[3,4-d]pyrimidine-7(8H)-carboxylate] | – | > 10 | > 10
3 | CCNC(=O)Nc1ccc(-c2nc3c(c(N4CCOCC4)n2)CCN(C(C)=O)C3)cc1 [Example 97, 1-(4-(7-acetyl-4-morpholino-5,6,7,8-tetrahydropyrido[3,4-d]pyrimidin-2-yl)phenyl)-3-ethylurea] | – | 1 to 10 | > 10
4 | CCNC(=O)Nc1ccc(-c2nc3c(c(N4CCOC[C@@H]4C)n2)CN(CC(C)(C)C)C3)cc1 [Example 67, (S)-1-ethyl-3-(4-(4-(3-methylmorpholino)-6-neopentyl-6,7-dihydro-5H-pyrrolo[3,4-d]pyrimidin-2-yl)phenyl)urea] | – | > 10 | > 10
5 | COC(=O)N1Cc2nc(-c3ccc(NC(=O)NC4CC4)cc3)nc(N3CCOC[C@@H]3C)c2C1 [Example 86, (S)-methyl 2-(4-(3-cyclopropylureido)phenyl)-4-(3-methylmorpholino)-5H-pyrrolo[3,4-d]pyrimidine-6(7H)-carboxylate] | – | > 10 | > 10
6 | CCNC(=O)Nc1ccc(-c2nc3c(c(N4CCOC[C@@H]4C)n2)CN(C(=O)OCC)C3)c(F)c1 [Example 113, (S)-ethyl-2-(4-(3-ethylureido)-2-fluorophenyl)-4-(3-methylmorpholino)-5H-pyrrolo[3,4-d]pyrimidine-6(7H)-carboxylate] | – | > 10 | > 10
7 | CCNC(=O)Nc1ccc(-c2nc3c(c(N4CCOC[C@@H]4C)n2)CN(C(=O)OCC)CC3)cc1 [Example 107, (S)-ethyl 2-(4-(3-ethylureido)phenyl)-4-(3-methylmorpholino)-7,8-dihydropyrido[4,3-d]pyrimidine-6(5H)-carboxylate] | – | > 10 | > 10
8 | CCNC(=O)Nc1ccc(-c2nc3c(c(N4CCOC[C@@H]4C)n2)CN(C(=O)OC)C3)cc1 [Example 89, (S)-methyl 2-(4-(3-ethylureido)phenyl)-4-(3-methylmorpholino)-5H-pyrrolo[3,4-d]pyrimidine-6(7H)-carboxylate] | – | 1 to 10 | > 10
